Test results as given in US6608086B2, “Dihydropyridines and new uses thereof” (Synaptic Pharmaceutical Corporation, priority 1993, dated 2003).

Columns and labels:
[1] = target: T1, α1B Human Adrenergic Receptor (Homo sapiens, UniProt P35368); assay: Radioligand binding, [3H]prazosin, cloned human α1B adrenergic receptor; conditions: pKi alpha-1 1b, cloned human receptor in LM(tk-) cell membranes, SEM and n in lines below
T1 construct: The entire coding region of α1B (1563 bp); expressed in transfected cells
T1 sequence (P35368 1-520): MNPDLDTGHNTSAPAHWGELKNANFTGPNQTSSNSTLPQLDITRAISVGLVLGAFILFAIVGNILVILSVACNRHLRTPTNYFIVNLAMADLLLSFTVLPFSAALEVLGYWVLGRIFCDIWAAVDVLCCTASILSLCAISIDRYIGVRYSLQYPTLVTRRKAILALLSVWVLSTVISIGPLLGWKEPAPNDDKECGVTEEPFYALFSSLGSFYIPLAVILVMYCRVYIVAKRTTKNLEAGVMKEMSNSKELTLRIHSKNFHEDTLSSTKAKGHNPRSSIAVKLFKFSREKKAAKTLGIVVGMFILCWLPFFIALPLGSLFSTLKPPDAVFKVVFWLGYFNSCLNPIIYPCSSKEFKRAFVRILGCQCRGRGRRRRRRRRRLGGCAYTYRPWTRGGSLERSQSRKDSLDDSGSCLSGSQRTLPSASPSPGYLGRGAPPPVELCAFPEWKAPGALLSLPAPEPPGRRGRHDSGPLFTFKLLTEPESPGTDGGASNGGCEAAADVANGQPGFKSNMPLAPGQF
How it was run: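 [3H]prazosin (0.5 nM) binding was run for 20 min at 37° C in pH 7.5 Tris/MgCl2/ascorbate buffer on membranes of LM(tk−) cells stably expressing the cloned receptor. Filtration through GF/B ended the reaction; 10 μM phentolamine gave nonspecific binding.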

human prostatic tissue = assay: In vitro human prostate model: block of phenylephrine-induced contraction of human prostatic tissue; assay type: cell-based; conditions: block of phenylephrine-induced contraction of human prostate
canine prostate = assay: In vivo dog prostate model: inhibition of phenylephrine-induced increase in urethral pressure in anesthetized dogs; conditions: inhibition of phenylephrine-induced increases in urethral pressure, anesthetized dogs
Protocol: Protocol for In Vivo Evaluation of Compounds in Canine Prostate
Adult male mongrel dogs more than one year of age were chosen for the model. After induction of general anesthesia using sodium pentobarbital (25 mg/Kg i.v.), the animals were intubated and allowed to breathe spontaneously. An arterial catheter was inserted via the femoral artery to monitor blood pressure and i.v. line was inserted into the leg for fluid and drug administration. A constant saline infusion was maintained at 40 to 50 mL/h. Next, a seven cm lower abdominal incision was made one cm lateral to the penis.
The bladder, prostate and a short segment of urethra were identified and isolated, without damage to the nerves or blood vessels. A cystotomy incision was made through which the pressure catheter was inserted and positioned in the prostatic urethra. The cystotomy was not closed, but the wound edges were sutured to stop bleeding. The tip of the catheter was positioned just distal to the prostate and secured in place with an O-silk tie around the urethra. A second holding suture at the bladder neck secured the catheter in place.
Fluid, either water or saline, was pumped by a Harvard infusion pump at 0.1 mL/min through a Gould pressure transducer into the catheter. The fluid exists at a port in the catheter which is in the prostatic urethra. Occlusion of the port, by contraction of the prostate, blocks the flow and a pressure wave is created. This pressure is transmitted back through the catheter to the transducer which is attached to a Gould recorder. Squeezing the prostate gland caused an increase in urethral pressure which verified the correct position in the urethra.
The compounds were tested as follows: A dose response curve was first generated for phenylephrine alone, in doses ranging from one μg/Kg to 50 μg/Kg. The absolute rise in urethral pressure was recorded for each dose and the next dose given when the urethral pressure returned to baseline. Phenylephrine dose response curves were generated in all animals tested. Increasing doses of compounds were then given, and the phenylephrine dose response curve repeated in the prepense of each dose of the compound. No animal received more than one compound; four animals were used to test each compound. To test for tachyphylaxis, four separate dogs were challenged with repeated phenylephrine doses for six hrs, the usual length of each experiment. From the dose-effect data, the inhibition constant (Ki) and the median-effect dose (ED50) were calculated. Both the Ki and ED50 values given are calculated by using microcomputer software and an IBM-PC.

CCC1=C(C(N)=O)C(c2ccc([N+](=O)[O-])cc2)C(C(=O)NCCCN2CCC(c3ccccc3)(c3ccccc3)CC2)=C(CC)N1 (stereo not shown) [Example 42, 5-carboxamido-2,6-diethyl-1,4-dihydro-4-(4-nitrophenyl)-3-{N-[3-(4,4-diphenylpiperidin-1-yl)propyl]}carboxamidopyridine]
Ki [1]: 0.282 µM
pA2 (human prostatic tissue): 8.92 ± 0.08
Urethral Pressure K i (canine prostate): 9 ± 2.5 nmol/kg
melting point: 119 to 123 °C
